Data reported in ChEMBL document CHEMBL3885861, “Open TG-GATES”.

Organism: Rattus norvegicus
Assay: Open TG-GATES - Regimen: Single
Assay type: toxicity, organism-based, Sprague-Dawley
Set-up: regimen Single, gender Male, age 6 weeks
Conditions: in vivo, po, route gavage; for APTT / Bas / Eos / Fbg / Hb / Ht / Lym / MCH / MCHC / MCV / Mono / Neu / PT / Plat / RBC / Ret / WBC: tissue Blood; for KIDNEY_L / KIDNEY_R / KIDNEY_TOTAL: tissue Kidney; for LIVER: tissue Liver; for A/G / ALP / ALT / AST / BUN / CRE / Ca / Cl / DBIL / GLC / IP / K / LDH / Na / PL / RALB / TBIL / TC / TG / TP / gamma-GTP: tissue Plasma
[1] = 300 mg/kg, 3 h, dose level Middle
[2] = 300 mg/kg, 6 h, dose level Middle
[3] = 300 mg/kg, 9 h, dose level Middle
[4] = 300 mg/kg, 24 h, dose level Middle
[5] = 1000 mg/kg, 3 h, dose level High
[6] = 1000 mg/kg, 6 h, dose level High
[7] = 1000 mg/kg, 9 h, dose level High
[8] = 1000 mg/kg, 24 h, dose level High

## CC(=O)Nc1ccc2c(c1)Cc1ccccc1-2 [2-ACETYLAMINOFLUORENE]
[1]
  TERMINAL_BW: 222.8 g
  APTT: 19.8 s
  Bas: 0.4%
  Eos: 1.2%
  Fbg: 222.4 mg/dL
  Hb: 13.9 g/dL
  Ht: 39.7%
  Lym: 69.8%
  MCH: 22.1 pg
  MCHC: 34.9%
  MCV: 63.3 fL
  Mono: 2.8%
  Neu: 25.4%
  PT: 12 s
  Plat: 131.6 x10_4/uL
  RBC: 626.2 x10_4/ul
  Ret: 7.1%
  WBC: 74.2 x10_2/uL
  KIDNEY_L: 1 g
  KIDNEY_R: 0.9 g
  KIDNEY_TOTAL: 1.9 g
  LIVER: 10.3 g
  A/G: 1.7
  ALP: 922.4 IU/L
  ALT: 39 IU/L
  AST: 78 IU/L
  BUN: 12.8 mg/dL
  CRE: 0.4 mg/dL
  Ca: 10.8 mg/dL
  Cl: 103.8 meq/L
  DBIL: 0.07 mg/dL
  GLC: 201.6 mg/dL
  IP: 10.2 mg/dL
  K: 3.9 meq/L
  LDH: 195.8 IU/L
  Na: 141.6 meq/L
  PL: 133.2 mg/dL
  RALB: 3.6 g/dL
  TBIL: 0.1 mg/dL
  TC: 74.6 mg/dL
  TG: 62.6 mg/dL
  TP: 5.7 g/dL
  gamma-GTP: 1.4 IU/L
[2]
  TERMINAL_BW: 219.1 g
  APTT: 20 s
  Bas: 0.6%
  Eos: 0.8%
  Fbg: 224.8 mg/dL
  Hb: 14.4 g/dL
  Ht: 41.9%
  Lym: 77.2%
  MCH: 21.9 pg
  MCHC: 34.4%
  MCV: 63.5 fL
  Mono: 2.2%
  Neu: 18.8%
  PT: 12.8 s
  Plat: 128 x10_4/uL
  RBC: 661.8 x10_4/ul
  Ret: 7.2%
  WBC: 67.5 x10_2/uL
  KIDNEY_L: 1 g
  KIDNEY_R: 1 g
  KIDNEY_TOTAL: 2 g
  LIVER: 10 g
  A/G: 1.6
  ALP: 837.8 IU/L
  ALT: 31.6 IU/L
  AST: 67.6 IU/L
  BUN: 12.2 mg/dL
  CRE: 0.5 mg/dL
  Ca: 10.8 mg/dL
  Cl: 102.6 meq/L
  DBIL: 0.068 mg/dL
  GLC: 218.2 mg/dL
  IP: 9.1 mg/dL
  K: 3.8 meq/L
  LDH: 191.4 IU/L
  Na: 141 meq/L
  PL: 144.4 mg/dL
  RALB: 3.5 g/dL
  TBIL: 0.1 mg/dL
  TC: 85.2 mg/dL
  TG: 32.6 mg/dL
  TP: 5.6 g/dL
  gamma-GTP: 1.2 IU/L
[3]
  TERMINAL_BW: 215.7 g
  APTT: 18.1 s
  Bas: 0.2%
  Eos: 0.6%
  Fbg: 233.8 mg/dL
  Hb: 13.9 g/dL
  Ht: 40.7%
  Lym: 74%
  MCH: 21.4 pg
  MCHC: 34.2%
  MCV: 62.5 fL
  Mono: 2.8%
  Neu: 21.8%
  PT: 13 s
  Plat: 136.5 x10_4/uL
  RBC: 652 x10_4/ul
  Ret: 7.4%
  WBC: 80.9 x10_2/uL
  KIDNEY_L: 1 g
  KIDNEY_R: 1 g
  KIDNEY_TOTAL: 1.9 g
  LIVER: 9.7 g
  A/G: 1.6
  ALP: 756.6 IU/L
  ALT: 31.4 IU/L
  AST: 68 IU/L
  BUN: 10.4 mg/dL
  CRE: 0.4 mg/dL
  Ca: 10.5 mg/dL
  Cl: 103.4 meq/L
  DBIL: 0.06 mg/dL
  GLC: 206.4 mg/dL
  IP: 8.9 mg/dL
  K: 4 meq/L
  LDH: 184.6 IU/L
  Na: 140.2 meq/L
  PL: 125 mg/dL
  RALB: 3.5 g/dL
  TBIL: 0.1 mg/dL
  TC: 72.2 mg/dL
  TG: 32.2 mg/dL
  TP: 5.7 g/dL
  gamma-GTP: 1.2 IU/L
[4]
  TERMINAL_BW: 220.9 g
  APTT: 19.1 s
  Bas: 0.6%
  Eos: 1%
  Fbg: 210.8 mg/dL
  Hb: 14.5 g/dL
  Ht: 41.9%
  Lym: 75.2%
  MCH: 22.2 pg
  MCHC: 34.8%
  MCV: 63.7 fL
  Mono: 3.2%
  Neu: 19.8%
  PT: 14.4 s
  Plat: 131.6 x10_4/uL
  RBC: 657.8 x10_4/ul
  Ret: 5.9%
  WBC: 77.9 x10_2/uL
  KIDNEY_L: 1 g
  KIDNEY_R: 1 g
  KIDNEY_TOTAL: 2 g
  LIVER: 11 g
  A/G: 1.7
  ALP: 865 IU/L
  ALT: 35.4 IU/L
  AST: 74 IU/L
  BUN: 15.6 mg/dL
  CRE: 0.4 mg/dL
  Ca: 10.6 mg/dL
  Cl: 105.2 meq/L
  DBIL: 0.098 mg/dL
  GLC: 196.6 mg/dL
  IP: 9.1 mg/dL
  K: 4.3 meq/L
  LDH: 212.8 IU/L
  Na: 140.6 meq/L
  PL: 117 mg/dL
  RALB: 3.3 g/dL
  TBIL: 0.2 mg/dL
  TC: 52 mg/dL
  TG: 75.8 mg/dL
  TP: 5.2 g/dL
  gamma-GTP: 1.2 IU/L
[5]
  TERMINAL_BW: 222.5 g
  APTT: 20.1 s
  Bas: 0.6%
  Eos: 1%
  Fbg: 233.2 mg/dL
  Hb: 14.2 g/dL
  Ht: 41%
  Lym: 73%
  MCH: 21.9 pg
  MCHC: 34.7%
  MCV: 63.3 fL
  Mono: 3%
  Neu: 21.6%
  PT: 12 s
  Plat: 122.7 x10_4/uL
  RBC: 648.8 x10_4/ul
  Ret: 7.5%
  WBC: 60.1 x10_2/uL
  KIDNEY_L: 1 g
  KIDNEY_R: 1 g
  KIDNEY_TOTAL: 2 g
  LIVER: 10.4 g
  A/G: 1.6
  ALP: 850.2 IU/L
  ALT: 41.4 IU/L
  AST: 84 IU/L
  BUN: 12.4 mg/dL
  CRE: 0.5 mg/dL
  Ca: 10.9 mg/dL
  Cl: 102.4 meq/L
  DBIL: 0.078 mg/dL
  GLC: 218.8 mg/dL
  IP: 10.5 mg/dL
  K: 3.8 meq/L
  LDH: 209.6 IU/L
  Na: 140.8 meq/L
  PL: 151.6 mg/dL
  RALB: 3.6 g/dL
  TBIL: 0.1 mg/dL
  TC: 87.4 mg/dL
  TG: 68.8 mg/dL
  TP: 5.9 g/dL
  gamma-GTP: 1.2 IU/L
[6]
  TERMINAL_BW: 215.7 g
  APTT: 19.6 s
  Bas: 0.8%
  Eos: 1.2%
  Fbg: 227.2 mg/dL
  Hb: 14.4 g/dL
  Ht: 41.6%
  Lym: 73.6%
  MCH: 21.9 pg
  MCHC: 34.6%
  MCV: 63.4 fL
  Mono: 1.8%
  Neu: 22.8%
  PT: 12.9 s
  Plat: 126.1 x10_4/uL
  RBC: 656.8 x10_4/ul
  Ret: 7.5%
  WBC: 35.4 x10_2/uL
  KIDNEY_L: 0.9 g
  KIDNEY_R: 0.9 g
  KIDNEY_TOTAL: 1.8 g
  LIVER: 9.7 g
  A/G: 1.7
  ALP: 1010.2 IU/L
  ALT: 37.4 IU/L
  AST: 72.6 IU/L
  BUN: 14.4 mg/dL
  CRE: 0.5 mg/dL
  Ca: 10.7 mg/dL
  Cl: 102 meq/L
  DBIL: 0.074 mg/dL
  GLC: 251.2 mg/dL
  IP: 9.7 mg/dL
  K: 4 meq/L
  LDH: 228.6 IU/L
  Na: 140.6 meq/L
  PL: 133.6 mg/dL
  RALB: 3.6 g/dL
  TBIL: 0.1 mg/dL
  TC: 83.8 mg/dL
  TG: 26.6 mg/dL
  TP: 5.8 g/dL
  gamma-GTP: 1.4 IU/L
[7]
  TERMINAL_BW: 214.2 g
  APTT: 18.7 s
  Bas: 0.6%
  Eos: 0.6%
  Fbg: 252.4 mg/dL
  Hb: 14.8 g/dL
  Ht: 42.6%
  Lym: 68.8%
  MCH: 22 pg
  MCHC: 34.7%
  MCV: 63.3 fL
  Mono: 3.6%
  Neu: 25%
  PT: 13.1 s
  Plat: 130.1 x10_4/uL
  RBC: 673.2 x10_4/ul
  Ret: 7.4%
  WBC: 46.2 x10_2/uL
  KIDNEY_L: 1 g
  KIDNEY_R: 0.9 g
  KIDNEY_TOTAL: 1.9 g
  LIVER: 10.4 g
  A/G: 1.5
  ALP: 751.4 IU/L
  ALT: 33 IU/L
  AST: 64.8 IU/L
  BUN: 13.4 mg/dL
  CRE: 0.5 mg/dL
  Ca: 11.1 mg/dL
  Cl: 104.6 meq/L
  DBIL: 0.066 mg/dL
  GLC: 225.4 mg/dL
  IP: 9.7 mg/dL
  K: 4.2 meq/L
  LDH: 196.8 IU/L
  Na: 141.4 meq/L
  PL: 160.4 mg/dL
  RALB: 3.6 g/dL
  TBIL: 0.1 mg/dL
  TC: 90 mg/dL
  TG: 34.4 mg/dL
  TP: 6 g/dL
  gamma-GTP: 1 IU/L
[8]
  TERMINAL_BW: 212.5 g
  APTT: 20.3 s
  Bas: 0.4%
  Eos: 0.8%
  Fbg: 209.6 mg/dL
  Hb: 14.7 g/dL
  Ht: 42.1%
  Lym: 67.2%
  MCH: 21.8 pg
  MCHC: 35%
  MCV: 62.3 fL
  Mono: 2.8%
  Neu: 28%
  PT: 15 s
  Plat: 140.3 x10_4/uL
  RBC: 675.8 x10_4/ul
  Ret: 7%
  WBC: 79.6 x10_2/uL
  KIDNEY_L: 1 g
  KIDNEY_R: 1 g
  KIDNEY_TOTAL: 1.9 g
  LIVER: 9.7 g
  A/G: 1.6
  ALP: 787.8 IU/L
  ALT: 32.4 IU/L
  AST: 78.8 IU/L
  BUN: 11.6 mg/dL
  CRE: 0.6 mg/dL
  Ca: 10 mg/dL
  Cl: 105 meq/L
  DBIL: 0.1 mg/dL
  GLC: 190.6 mg/dL
  IP: 8.7 mg/dL
  K: 4.2 meq/L
  LDH: 252.4 IU/L
  Na: 140.8 meq/L
  PL: 116.8 mg/dL
  RALB: 3.3 g/dL
  TBIL: 0.2 mg/dL
  TC: 59.6 mg/dL
  TG: 67.4 mg/dL
  TP: 5.3 g/dL
  gamma-GTP: 1.2 IU/L
